Like-named read-outs stand apart in the source and are kept apart here.
How the values were obtained:
androgen receptor = biological target: T1, androgen receptor (Homo sapiens, UniProt P10275, T878A); assay: cell-based; settings: 48 h; for remaining activity at 1 µM / remaining activity at 10 µM: LNCaP; for remaining activity at 1 µM: read-out: AR Content [%] At 1 μM; for remaining activity at 10 µM: read-out: AR Content [%] At 10 μM
T1 construct: 2*10^6 LNCaP cells in 6 ml of RPMI 1640 without phenol red are grown; endogenous in cells; host or cells: LNCaP (human prostate cell line)
T1 sequence (P10275 1-920 T878A): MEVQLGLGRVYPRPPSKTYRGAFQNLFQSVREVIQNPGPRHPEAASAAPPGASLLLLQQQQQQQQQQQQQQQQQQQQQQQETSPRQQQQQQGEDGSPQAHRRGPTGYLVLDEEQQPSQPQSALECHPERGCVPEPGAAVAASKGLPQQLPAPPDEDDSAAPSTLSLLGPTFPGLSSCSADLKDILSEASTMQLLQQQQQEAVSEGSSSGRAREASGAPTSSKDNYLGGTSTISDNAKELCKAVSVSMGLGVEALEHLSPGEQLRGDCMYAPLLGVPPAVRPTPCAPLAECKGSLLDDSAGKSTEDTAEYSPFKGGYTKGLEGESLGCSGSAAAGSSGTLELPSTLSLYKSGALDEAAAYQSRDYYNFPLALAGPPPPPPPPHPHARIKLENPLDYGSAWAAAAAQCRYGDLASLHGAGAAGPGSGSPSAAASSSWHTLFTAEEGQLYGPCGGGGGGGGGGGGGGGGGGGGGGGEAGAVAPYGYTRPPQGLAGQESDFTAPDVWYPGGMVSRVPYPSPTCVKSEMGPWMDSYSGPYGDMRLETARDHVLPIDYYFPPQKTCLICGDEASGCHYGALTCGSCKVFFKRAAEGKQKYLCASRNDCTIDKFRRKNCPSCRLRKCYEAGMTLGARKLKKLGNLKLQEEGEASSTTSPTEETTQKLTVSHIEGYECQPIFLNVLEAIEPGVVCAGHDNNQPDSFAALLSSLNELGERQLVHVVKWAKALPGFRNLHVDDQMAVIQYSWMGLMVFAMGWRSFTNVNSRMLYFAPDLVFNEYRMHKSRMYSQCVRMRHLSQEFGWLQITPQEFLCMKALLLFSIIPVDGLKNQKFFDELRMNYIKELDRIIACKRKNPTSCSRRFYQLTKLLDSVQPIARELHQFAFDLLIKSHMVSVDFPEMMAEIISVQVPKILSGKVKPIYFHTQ

seminal vesicles = assay: Model 4: Antiandrogenic action on testosterone-stimulated growth of accessory sexual glands of castrated mice; type: in vivo; settings: testosterone propionate 0.03 mg/mouse, test substance 2 × 30 mg/kg s.c., 7 days, CPA 30 mg/kg s.c., bicalutamide from preceding tests
Method: The function and the size of accessory sexual glands (prostate and seminal vesicles) depend on androgens. In castrated animals, a growth of these (organs is induced by androgen administration. The simultaneous treatment with antiandrogens inhibits this growth, depending on the dose.
To examine the test substances, the mice were castrated. The treatment with testosterone propionate (0.03 mg/mouse) and the test substances (formulated 2×daily 30 mg/kg s.c. in benzyl benzoate-castor oil (10:90)) was on the same day. The treatment was carried out over 7 days and at the end of the test, the weights of the seminal vesicles and prostates were determined. The inhibition, in percent, of the seminal vesicle growth was calculated relative to the control groups (with and without testosterone). As a reference substance, cyproterone acetate (30 mg/kg s.c.) was used.

LNCaP cells = assay: Model 2: Inhibition of the proliferation of LNCaP cells (crystal violet assay; antagonism with 0.1 nM R1881, agonism without); type: cell-based, human; settings: for IC50: LNCaP proliferation in the presence of 0.1 nM R1881, 7-8 days, read-out: IC50 [10^−7 M]; for % Inhibition at 1 μM: LNCaP proliferation, 1 μM substance, compared to cell growth in the presence of 0.1 nM R1881
MaTu cells = assay: Model 3: Proliferation of non-prostate cells, MaTu; type: cell-based, human; settings: 10 μM, 3-day treatment; percent of cell growth of solvent control
Method: (§1) To examine the growth-inhibiting action of test substances in cells that are not of prostatic origin, MaTu cells, MaTu/Adr cells, HaCaT cells and A431 cells were treated with test substances, whereby
(§2) Depending on the cell line, 1000-4000 cells/well were grown in RPMI 1640 medium (A431; MaTu and MaTu/Adr) or DMEM/HAM'SF12 medium (HaCaT) without phenol red with 2 mmol of L-glutamine and 10% CCS, and after a 24-hour incubation, they were treated with various concentrations of test substances diluted in culture medium. After a 3-day treatment period, the number of cells was determined by crystal violet assay, as in Model 2. The solvent control contained 0.1% ethanol.
(§3) The substances were tested at a concentration of 10 μM, and the data correspond to the proportion, in percent, of the cell growth of the solvent control. It turns out that the test substances exerted no inhibitory action on the four different cell lines or, in individual cases, only a slight inhibitory action.

MaTu/Adr cells = assay: Model 3: Proliferation of non-prostate cells, MaTu/Adr; type: cell-based, human; settings: 10 μM, 3-day treatment; percent of cell growth of solvent control
Method: as §1, §2, §3

A431 cells = assay: Model 3: Proliferation of non-prostate cells, A431; type: cell-based, human; settings: 10 μM, 3-day treatment; percent of cell growth of solvent control
Method: as §1, §2, §3

HaCaT cells = assay: Model 3: Proliferation of non-prostate cells, HaCaT; type: cell-based, human; settings: 10 μM, 3-day treatment; percent of cell growth of solvent control
Method: as §1, §2, §3

For `CSC(=O)N1CCN(CCCCCCN2C(=S)N(c3ccc(C#N)c(C(F)(F)F)c3)C(=O)C2(C)C)CC1` [Example 696, S-Methyl 4-[6-[3-[4-cyano-3-(trifluoromethyl)phenyl]-5,5-dimethyl-4-oxo-2-thioxoimidazolidin-1-yl]hexyl]piperazine-1-carbothioate], the remaining activity at 1 µM (androgen receptor) was 60% and the “% Inhibition of the MSB Growth” value (seminal vesicles) was 87%.

With `CC(C)C(=O)N1CCN(CCCCN2C(=S)N(c3ccc(C#N)c(C(F)(F)F)c3)C(=O)C2(C)C)CC1` [Example 546, 4-[4,4-Dimethyl-3-[4-[4-(2-methyl-1-oxopropyl)piperazin-1-yl]butyl]-5-oxo-2-thioxoimidazolidin-1-yl]-2-(trifluoromethyl)benzonitrile] the remaining activity at 1 µM (androgen receptor) was 68% and the “% Inhibition of the MSB Growth” value (seminal vesicles) was 98%.

`CC(C)(O)C(=O)N1CCN(CCCCCCN2C(=S)N(c3ccc(C#N)c(C(F)(F)F)c3)C(=O)C2(C)C)CC1` [Example 656] was tested, and the IC50 (LNCaP cells) was 26 nM and the “% Inhibition at 1 μM” value (LNCaP cells) was 99%.

`CC1(C)C(=O)N(c2ccc(C#N)c(C(F)(F)F)c2)C(=S)N1CCCCCCN1CCN(C(=O)C(F)(F)F)CC1` [Example 670, 4-[4,4-Dimethyl-5-oxo-2-thioxo-3-[6-[4-(trifluoracetyl)piperazin-1-yl]hexyl]-imidazolidin-1-yl]-2-(trifluoromethyl)-benzonitrile] was tested, and the IC50 (LNCaP cells) was 24 nM and the “% Inhibition at 1 μM” value (LNCaP cells) was 96%.

For `CC1=C(CCCCN2CCN(C(=O)c3ccccc3Cl)CC2)C(=O)N(c2ccc(C#N)c(C(F)(F)F)c2)C1=O` [Example 90, 4-[3-[4-[4-(2-Chlorobenzoyl)piperazin-1-yl]butyl]-2,5-dihydro-4-methyl-2,5-dioxo-1H-pyrrol-1-yl]-2-(trifluoromethyl)benzonitrile], the “Proliferation in the Cell Line MaTu” value (MaTu cells) was 96 +/− 3%, the “Proliferation in the Cell Line MaTu/Adr” value (MaTu/Adr cells) was 80 +/− 2% and the “Proliferation in the Cell Line A431” value (A431 cells) was 98 +/− 7%. The remaining activity at 10 µM (androgen receptor) was 34% and the “Proliferation in the Cell Line HaCaT” value (HaCaT cells) was 102 +/− 12%.

In the case of `CC(=O)O[C@]1(C(C)=O)CC[C@H]2[C@@H]3C=C(Cl)C4=CC(=O)[C@@H]5C[C@@H]5[C@]4(C)[C@H]3CC[C@@]21C` [CPA, 17-(acetyloxy)-6-chloro-1β,2β-dihydro-3′H-cyclopropa[1,2]pregna-1,4,6-triene-3,20-dione, reference compound], the “% Inhibition of the MSB Growth” value (seminal vesicles) is reported as 85%.

In the case of `CCS(=O)(=O)N1CCN(CCCCCN2C(=S)N(c3ccc(C#N)c(C(F)(F)F)c3)C(=O)C2(C)C)CC1` [Example 629, 4-[3-[5-[4-(Ethylsulfonyl)piperazin-1-yl]pentyl]-4,4-dimethyl-5-oxo-2-thioxoimidazolidin-1-yl]-2-(trifluoromethyl)benzonitrile], the IC50 (LNCaP cells; Homo sapiens) is reported as 140 nM, the remaining activity at 1 µM (androgen receptor) is reported as 54% and the “% Inhibition of the MSB Growth” value (seminal vesicles) is reported as 98%.

In the case of `CC1=C(CCCCCCN2CCN(C(=O)Nc3ccccc3)CC2)C(=O)N(c2ccc(C#N)c(C(F)(F)F)c2)C1=O` [Example 315, 4-[6-[1-[4-Cyano-3-(trifluoromethyl)phenyl]-2,5-dihydro-4-methyl-2,5-dioxo-1H-pyrrol-3-yl]hexyl]-N-phenylpiperazine-1-carboxamide], the “Proliferation in the Cell Line MaTu” value (MaTu cells) is reported as 95 +/− 7%, the IC50 (LNCaP cells; Homo sapiens) is reported as 380 nM and the “Proliferation in the Cell Line MaTu/Adr” value (MaTu/Adr cells) is reported as 90 +/− 10%. For the same molecule, the “Proliferation in the Cell Line A431” value (A431 cells) was 95 +/− 5%, the remaining activity at 10 µM (androgen receptor) was 52% and the “Proliferation in the Cell Line HaCaT” value (HaCaT cells) was 102 +/− 6%.

`CC1=C(CCCCN2CCN(C(=O)c3cccs3)CC2)C(=O)N(c2ccc(C#N)c(C(F)(F)F)c2)C1=O` [Example 99, 4-[2,5-Dihydro-3-methyl-2,5-dioxo-4-[4-[4-[(thien-2-yl)-carbonyl]piperazin-1-yl]butyl]-1H-pyrrol-1-yl]-2-(trifluoromethyl)benzonitrile] was tested, and the remaining activity at 10 µM (androgen receptor) was 66%.

In the case of `COc1ccccc1C(=O)N1CCN(CCCCCCC2=C(C)C(=O)N(c3ccc(C#N)c(C(F)(F)F)c3)C2=O)CC1` [Example 248, 4-[2,5-Dihydro-3-[6-[4-(2-methoxybenzoyl)piperazin-1-yl]hexyl]-4-methyl-2,5-dioxo-1H-pyrrol-1-yl]-2-(trifluoromethyl)benzonitrile], the “Proliferation in the Cell Line MaTu” value (MaTu cells) is reported as 98 +/− 4%, the IC50 (LNCaP cells; Homo sapiens) is reported as 250 nM and the “Proliferation in the Cell Line MaTu/Adr” value (MaTu/Adr cells) is reported as 88 +/− 4%. The “Proliferation in the Cell Line A431” value (A431 cells) was 102 +/− 5%, the remaining activity at 1 µM (androgen receptor) was 51% and the remaining activity at 10 µM (androgen receptor) was 22%. The “Proliferation in the Cell Line HaCaT” value (HaCaT cells) was 104 +/− 7%.

With `CC1=C(CCCCCCN2CCN(S(=O)(=O)c3ccccc3)CC2)C(=O)N(c2ccc(C#N)c(C(F)(F)F)c2)C1=O` [Example 295, 4-[2,5-Dihydro-3-methyl-2,5-dioxo-4-[6-[4-(phenylsulfonyl)piperazin-1-yl]hexyl]-1H-pyrrol-1-yl]-2-(trifluoromethyl)benzonitrite] the “AR Content [%] At 10 μM” value (androgen receptor; LNCaP cells, 10 μM test substance, AR/actin as percentage of DMSO control) was 48%.

Molecule `CC1=C(CCCCCCN2CCN(C(=O)CC(C)C)CC2)C(=O)N(c2ccc(C#N)c(C(F)(F)F)c2)C1=O` [Example 270, 4-[2,5-Dihydro-3-methyl-4-[6-[4-(3-methyl-1-oxobutyl)piperazin-1-yl]hexyl]-2,5-dioxo-1H-pyrrol-1-yl]-2-(trifluoromethyl)benzonitrile] has a remaining activity at 10 µM (androgen receptor) of 65%.

Source: patent US6861432B2, “Piperazine derivatives that destabilize androgen receptors” (Schering Aktiengesellschaft, priority 2001, dated 2005)
